Some results are limits rather than exact numbers.

For series [1], the target named is T1, Human 5-lipoxygenase (Homo sapiens, UniProt P09917).
T1 construct: purchased Cayman 60402; host or cells: insect cells
T1 sequence (P09917 1-674): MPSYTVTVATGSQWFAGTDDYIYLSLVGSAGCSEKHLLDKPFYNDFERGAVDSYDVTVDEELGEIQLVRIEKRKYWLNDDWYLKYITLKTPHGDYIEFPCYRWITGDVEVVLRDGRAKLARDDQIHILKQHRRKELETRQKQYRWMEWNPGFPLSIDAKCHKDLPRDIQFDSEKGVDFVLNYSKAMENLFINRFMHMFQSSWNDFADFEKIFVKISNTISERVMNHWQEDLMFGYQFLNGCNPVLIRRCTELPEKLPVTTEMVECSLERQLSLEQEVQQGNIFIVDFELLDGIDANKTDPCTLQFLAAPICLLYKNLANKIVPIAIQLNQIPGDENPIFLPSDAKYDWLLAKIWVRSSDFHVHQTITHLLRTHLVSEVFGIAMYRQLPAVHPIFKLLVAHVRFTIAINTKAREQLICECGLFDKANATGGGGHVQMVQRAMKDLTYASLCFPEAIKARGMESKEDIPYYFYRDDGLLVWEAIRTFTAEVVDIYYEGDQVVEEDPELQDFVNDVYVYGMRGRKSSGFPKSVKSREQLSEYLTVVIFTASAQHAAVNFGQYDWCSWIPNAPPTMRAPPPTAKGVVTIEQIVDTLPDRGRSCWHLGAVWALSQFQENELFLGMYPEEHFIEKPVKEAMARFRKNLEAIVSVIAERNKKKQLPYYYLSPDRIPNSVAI
Kind of series: Activity of compounds against 5-LO enzyme (LTB4 measurement and/or fluorescence method). It is filed as biochemical. The note with it: for inhibition at 10 µM: 5-LO, single concentration of 10 uM in duplicate; for IC50: 6 or 11 point dose response in duplicate. An outline of the steps: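 Two read-outs: LTB4 measured by EIA and/or LC/MS/MS with LTB4-d4 standard after 15 min RT compound preincubation with insect-cell 5-LO and a 5 min 37 °C reaction on 3 uM arachidonic acid (0.1 mM ATP, pH 7.4). The room-temperature fluorescence format used 20 uM H2DCFDA, 100 uM ATP, 3 uM arachidonic acid, 5 min; IC50 from 6/11-point curves.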

Consider `CCc1nc2ccccn2c1C(=O)NCc1ccc(N2CCC(COc3ccc(F)cc3)CC2)cc1` [compound 243, 2-Ethyl-N-(4-(4-((4-fluorophenoxy)methyl)piperidin-1-yl)benzyl)imidazo[1,2-a]pyridine-3-carboxamide], for which the melting point – broadly, the temperature of the solid-liquid transition – came out at 144.2 °C. Moreover, in series [1], the inhibition (commonly the change of the read-out against control, counted positive when it falls) at 10 µM is more than 69% and the IC50 – broadly, the concentration that gives 50% inhibition – is less than 1000 nM.
The compound `CCc1nc2ccc(Cl)cn2c1C(=O)NCc1ccc(N2CCN3CCCC3C2)cc1` (stereo not drawn) [compound 237, 6-Chloro-2-ethyl-N-(4-(hexahydropyrrolo[1,2-a]pyrazin-2(1H)-yl)benzyl)imidazo[1,2-a]pyridine-3-carboxamide] gave a melting point of 163 °C. The inhibition at 10 µM in series [1] was less than 40%.
For `CCc1nc2ccc(F)cn2c1C(=O)NCc1ccc(N2CCN(c3ccc(F)cc3)CC2)cc1` [compound 228, 2-Ethyl-6-fluoro-N-(4-(4-(4-fluorophenyl)piperazin-1-yl)benzyl)imidazo[1,2-a]pyridine-3-carboxamide], the melting point worked out at 200.9 °C. Moreover, in series [1], the inhibition at 10 µM is more than 69% and the IC50 was in the range of 1000 to 20000 nM.
`CCc1nc2ccc(Br)cn2c1C(=O)NCc1ccc(Oc2ccc(OC(F)(F)F)cc2)cc1` [compound 226, 6-Bromo-2-ethyl-N-(4-(4-(trifluoromethoxy)phenoxy)benzyl)imidazo[1,2-a]pyridine-3-carboxamide] showed a melting point of 152.9 °C. The inhibition at 10 µM in series [1] was less than 40%.
The corresponding values for `CCc1nc2ccc(Cl)cn2c1C(=O)NCc1cc2cc(Cl)ccc2s1` [compound 361, 6-chloro-N-((5-chlorobenzo[b]thiophen-2-yl)methyl)-2-ethylimidazo[1,2-a]pyridine-3-carboxamide] are more than 220 °C and less than 40%.
As to `Cc1nc2cccc(C)n2c1CNc1ccc(N2CCN(c3ccc(F)cc3)CC2)cc1` [compound 402, N-((2,5-dimethylimidazo[1,2-a]pyridin-3-yl)methyl)-4-(4-(4-fluorophenyl)piperazin-1-yl)aniline], the melting point is 196.4 °C. Further, the IC50 in series [1] was less than 1000 nM.
As to `CCc1nc2cc(Cl)ccn2c1C(=O)NCc1nc2ccc(-c3ccc(OC(F)(F)F)cc3)cc2o1` [compound 374, 7-chloro-2-ethyl-N-((6-(4-(trifluoromethoxy)phenyl)benzo[d]oxazol-2-yl)methyl)imidazo[1,2-a]pyridine-3-carboxamide], the melting point is more than 220 °C. Further, the inhibition at 10 µM in series [1] is less than 40%.
The corresponding values for `CCc1nc2ccc(Cl)cn2c1C(=O)NCc1cccc(N2CCC(Oc3ccc(OC(F)(F)F)cc3)CC2)c1` [compound 360, 6-chloro-2-ethyl-N-(3-(4-(4-(trifluoromethoxy)phenoxy)piperidin-1-yl)benzyl)imidazo[1,2-a]pyridine-3-carboxamide] are 126.3 to 127.2 °C and 40 to 69%.
Consider `CCc1nc2ccc(Cl)cn2c1C(=O)NCc1ccc(N2CCC(COc3ccc(F)cc3)CC2)cc1` [compound 244, 6-Chloro-2-ethyl-N-(4-(4-((4-fluorophenoxy)methyl)piperidin-1-yl)benzyl)imidazo[1,2-a]pyridine-3-carboxamide], for which the melting point turned out to be 171 °C. The compound further displayed an inhibition at 10 µM in series [1] of 40 to 69%.
As to `CCc1nc2ccc(Cl)cn2c1C(=O)NCC1CCN(Cc2ccc(F)cc2)CC1` [compound 139, 6-Chloro-2-ethyl-N-((1-(4-fluorobenzyl)piperidin-4-yl)methyl)imidazo[1,2-a]pyridine-3-carboxamide], the melting point was 176 to 177 °C. This compound also showed an inhibition at 10 µM in series [1] of less than 40%.
With `CCc1nc2ccc(Cl)cn2c1CNc1ccc(N2CCC(c3ccc(Cl)cc3)CC2)cc1` [compound 392, N-((6-chloro-2-ethylimidazo[1,2-a]pyridin-3-yl)methyl)-4-(4-(4-chlorophenyl)piperidin-1-yl)aniline], the melting point was 159.5 °C. In series [1], the IC50 was in the range of 1000 to 20000 nM.
`CCc1nc2cc(Cl)ccn2c1C(=O)NCc1ccc(Oc2ccc(Cl)cc2)cc1` [compound 161, 7-Chloro-N-(4-(4-chlorophenoxy)benzyl)-2-ethylimidazo[1,2-a]pyridine-3-carboxamide] came in with a melting point of 167.1 to 167.9 °C. In series [1], this compound gave an inhibition at 10 µM of more than 69% and an IC50 of 1000 to 20000 nM.
`CCc1nc2cc(Cl)ccn2c1C(=O)NCC1CCN(Cc2ccc(OC(F)(F)F)cc2)CC1` [compound 140, 7-Chloro-2-ethyl-N-((1-(4-(trifluoromethoxy)benzyl)piperidin-4-yl)methyl)imidazo[1,2-a]pyridine-3-carboxamide] had a melting point of 145 to 146 °C. The same compound gave an inhibition at 10 µM in series [1] of 40 to 69%.
In the case of `CCc1nc2cc(Cl)ccn2c1C(=O)NCc1cccc(-c2ccc(OC(F)(F)F)cc2)c1` [compound 204, 7-Chloro-2-ethyl-N-((4′-(trifluoromethoxy)biphenyl-3-yl)methyl)imidazo[1,2-a]pyridine-3-carboxamide], the melting point is 192.6 °C. In series [1], this compound yielded an inhibition at 10 µM of less than 40%.
For the compound `CCc1nc2ccc(Cl)cn2c1CNc1ccc(Oc2ccc(F)cc2)cc1` [compound 379, N-((6-Chloro-2-ethylimidazo[1,2-a]pyridin-3-yl)methyl)-4-(4-fluorophenoxy)aniline], the melting point was 148.6 to 148.8 °C. In series [1], this compound showed a half-maximal inhibitory concentration (IC50) of 1000 to 20000 nM.
For the compound `CCc1nc2ccc(Cl)cn2c1C(=O)NCc1cccc(OCc2ccc(OC(F)(F)F)cc2)c1` [compound 353, 6-chloro-2-ethyl-N-(3-((4-(trifluoromethoxy)benzyl)oxy)benzyl)imidazo[1,2-a]pyridine-3-carboxamide], the melting point was > 142.7 °C (dec.). Also, the inhibition at 10 µM in series [1] is less than 40%.
For `CCc1nc2cc(Cl)ccn2c1C(=O)NCc1ccc(C(F)(F)F)cc1` [compound 155, 7-Chloro-2-ethyl-N-(4-(trifluoromethyl)benzyl)imidazo[1,2-a]pyridine-3-carboxamide], the melting point was in the range of 196.2 to 196.9 °C. In addition, in series [1], the inhibition at 10 µM was less than 40%.
The corresponding values for `CCc1nc2ccc(Cl)cn2c1C(=O)NCc1cccc(N2CCC(c3ccc(OC(F)(F)F)cc3)CC2)c1` [compound 354, 6-chloro-2-ethyl-N-(3-(4-(4-(trifluoromethoxy)phenyl)piperidin-1-yl)benzyl)imidazo[1,2-a]pyridine-3-carboxamide] are 135.5 to 136.4 °C and less than 40%.
On the same counts, the results for `CCc1nc2ccc(Cl)cn2c1C(=O)NCc1ccc(N2CCC(C(N)=O)CC2)cc1` [compound 291, N-(4-(4-Carbamoylpiperidin-1-yl)benzyl)-6-chloro-2-ethylimidazo[1,2-a]pyridine-3-carboxamide] are 257.5 °C and less than 40%.
The corresponding values for `CCc1nc2ccccn2c1C(=O)NCc1ccc(C2CCOCC2)cc1` [compound 362, 2-ethyl-N-(4-(tetrahydro-2H-pyran-4-yl)benzyl)imidazo[1,2-a]pyridine-3-carboxamide] are > 133.7 °C (dec.) and less than 40%.
Compound `CCc1nc2ccc(Br)cn2c1C(=O)NCc1ccc(OCc2ccc(OC(F)(F)F)cc2)cc1` [compound 206, 6-Bromo-2-ethyl-N-(4-(4-(trifluoromethoxy)benzyloxy)benzyl)imidazo[1,2-a]pyridine-3-carboxamide] registered a melting point of 189.7 °C. In series [1], this compound gave an inhibition at 10 µM of less than 40%.
